Among the test systems are UACC-62 melanoma; SNB-75 CNS; KM12 colon; UACC-257 melanoma; NCI-H522 lung; T-47D breast; OVCAR-3 ovarian; LOX IMVI melanoma; MALME-3M melanoma; UO-31 renal.
Holding throughout (assay): growth of human tumour cells (NCI), 48 h

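Tested at 5 concentrations; 48 h exposure; 96-well plates; endpoints linearly interpolated, else capped at highest concentration. The concentration for 50% growth inhibition is given as GI50. TGI marks complete inhibition of growth.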

Take `O=[N+]([O-])c1ccc(N=Nc2c(Cl)cc(O)cc2Cl)cc1`: the GI50 was 1.39 µM in the test with UACC-62 melanoma; > 100 µM in the test on SNB-75 CNS; 1.41 µM with KM12 colon; 1.65 µM in the test on UACC-257 melanoma; 0.473 µM with NCI-H522 lung; 0.657 µM in the test on T-47D breast. In addition, the GI50 in the test with OVCAR-3 ovarian is 0.462 µM; with LOX IMVI melanoma it was 1.73 µM. The TGI is 3.59 µM with UACC-62 melanoma; > 100 µM with SNB-75 CNS; 3.36 µM in the test with KM12 colon; 4.49 µM with UACC-257 melanoma; 4.09 µM with NCI-H522 lung; 5.46 µM with T-47D breast. Besides, the TGI turned out to be 2.47 µM with OVCAR-3 ovarian and 10.6 µM in the test with LOX IMVI melanoma.
Regarding `N#CC(C(=O)CCC(=O)Nc1cccc(C(F)(F)F)c1)c1ccccc1` (stereo not drawn), the TGI in the test on MALME-3M melanoma, in the test on UACC-62 melanoma, with SNB-75 CNS, in the test with KM12 colon, with UO-31 renal and in the test with UACC-257 melanoma was > 100 µM in each case. Besides, the TGI with NCI-H522 lung, in the test on OVCAR-3 ovarian and in the test with LOX IMVI melanoma was > 100 µM in each case.
On to `O=C(c1ccccc1)C1OC1C(=O)c1ccccc1` (stereo not drawn), for which the GI50 in the test with MALME-3M melanoma is 3.24 µM; in the test with UACC-62 melanoma, 2.91 µM; in the test on KM12 colon it was 3.51 µM; in the test with UO-31 renal, 8.09 µM; in the test on UACC-257 melanoma, 5.75 µM; in the test with NCI-H522 lung it was 0.323 µM. The GI50 was 3.51 µM with T-47D breast, 1.77 µM with OVCAR-3 ovarian and 2.75 µM with LOX IMVI melanoma. In addition, the TGI in the test on MALME-3M melanoma came to 66 µM; with UACC-62 melanoma it was 15.9 µM; in the test with KM12 colon, 11.9 µM; in the test on UO-31 renal it was 85.6 µM; with UACC-257 melanoma it was 29.6 µM; in the test with NCI-H522 lung, 2.24 µM. Further, the values for the TGI with T-47D breast, with OVCAR-3 ovarian and in the test on LOX IMVI melanoma were > 100 µM, 6.7 µM and 11.7 µM, respectively.
Take `CCOC(=O)CNC(=O)OCc1ccccc1`: the TGI with MALME-3M melanoma, in the test on UACC-62 melanoma, in the test on SNB-75 CNS, with KM12 colon, in the test on UO-31 renal and in the test on UACC-257 melanoma was > 100 µM each time. In addition, the TGI in the test on NCI-H522 lung, in the test on OVCAR-3 ovarian and with LOX IMVI melanoma was > 100 µM throughout.
`CCn1c(SCC(=O)Nc2cc(C(F)(F)F)ccc2Cl)nc2ccccc2c1=O`: the GI50 was 34.3 µM in the test on MALME-3M melanoma; 38.4 µM in the test on UACC-62 melanoma; 17.1 µM with SNB-75 CNS; > 100 µM in the test on KM12 colon; 28.4 µM in the test on UO-31 renal; 25.2 µM with T-47D breast. Besides, the GI50 with OVCAR-3 ovarian is 43.2 µM; in the test with LOX IMVI melanoma, > 100 µM. The TGI in the test on MALME-3M melanoma was > 100 µM; with UACC-62 melanoma it was > 100 µM; in the test with SNB-75 CNS, 53.8 µM; with KM12 colon, > 100 µM; in the test with UO-31 renal, > 100 µM; with T-47D breast, > 100 µM. Also, the TGI in the test on OVCAR-3 ovarian and with LOX IMVI melanoma was > 100 µM each time.
Consider `COc1ccc2c(c1)C(=O)c1c-2c(N2CCN(C(=O)CCNCCNCCN)CC2)nc2ccccc12`, for which the GI50 with MALME-3M melanoma was 2.78 µM; with UACC-62 melanoma, 22.3 µM; in the test with SNB-75 CNS, 27.8 µM; with KM12 colon it was 4.94 µM; in the test with UO-31 renal, 10.5 µM; in the test on UACC-257 melanoma, 3.24 µM. The GI50 with NCI-H522 lung was 11.2 µM; with T-47D breast it was 3.43 µM; in the test on OVCAR-3 ovarian, 16.8 µM. Also, the TGI in the test on MALME-3M melanoma is 6.9 µM; in the test with UACC-62 melanoma it was 55.3 µM; with SNB-75 CNS, 51.6 µM; with KM12 colon, 62.2 µM; with UO-31 renal it was 30.4 µM; with UACC-257 melanoma, 9.33 µM. In addition, the TGI in the test with NCI-H522 lung stood at 41.1 µM; with T-47D breast it was 15.6 µM; in the test on OVCAR-3 ovarian, 61.2 µM.
As to `C1C[OH+]CCNCC[OH+]CC[OH+]CCN1.N.[Cl-].[Pt+4]`, the GI50 in the test on MALME-3M melanoma is > 100 µM; in the test on UACC-62 melanoma it was 31.6 µM; with SNB-75 CNS, 24.2 µM; in the test with KM12 colon, 29.5 µM; with UO-31 renal, 20.5 µM; in the test with UACC-257 melanoma it was 78.8 µM. Further, the values for the GI50 with NCI-H522 lung, in the test on OVCAR-3 ovarian and in the test on LOX IMVI melanoma were 14.2 µM, 89.1 µM and 33.2 µM, respectively. Further, the TGI with MALME-3M melanoma was > 100 µM; with UACC-62 melanoma, > 100 µM; with SNB-75 CNS it was > 100 µM; with KM12 colon, > 100 µM; with UO-31 renal it was 80 µM; with UACC-257 melanoma, > 100 µM. Moreover, the values for the TGI in the test with NCI-H522 lung, in the test on OVCAR-3 ovarian and in the test on LOX IMVI melanoma were 48.7 µM, > 100 µM and > 100 µM, respectively.
`Cc1nc2ccccc2c(/C=C/c2ccccc2)c1C(=O)/C=C/c1ccc(C(F)(F)F)cc1`: the GI50 with MALME-3M melanoma is 1.71 µM; in the test with UACC-62 melanoma it was 1.48 µM; in the test on SNB-75 CNS it was 1.44 µM; with UO-31 renal, 1.07 µM; in the test with UACC-257 melanoma, 1.96 µM; with NCI-H522 lung, 1.6 µM. The GI50 with T-47D breast is 1.18 µM; in the test on LOX IMVI melanoma, 1.09 µM. Moreover, the TGI is 3.18 µM in the test on MALME-3M melanoma; 2.93 µM with UACC-62 melanoma; 2.82 µM with SNB-75 CNS; 2.26 µM in the test on UO-31 renal; 4.25 µM in the test with UACC-257 melanoma; 6.32 µM in the test with NCI-H522 lung. Besides, the TGI in the test with T-47D breast is 3.88 µM; with LOX IMVI melanoma, 2.34 µM.
Turning to `N#CC1(N2CCCC2)CCC2(CC1)OCCO2`, the TGI in the test with MALME-3M melanoma, with UACC-62 melanoma, in the test on SNB-75 CNS, in the test with KM12 colon, in the test on UO-31 renal and with UACC-257 melanoma was > 100 µM throughout. The TGI with NCI-H522 lung, with OVCAR-3 ovarian and with LOX IMVI melanoma was > 100 µM throughout.
In the case of `COC(=O)/C(=N\NC(N)=O)C(C#N)c1ccccc1` (stereo not drawn), the TGI with MALME-3M melanoma, in the test with UACC-62 melanoma, in the test with SNB-75 CNS, in the test with KM12 colon, in the test on UO-31 renal and in the test with UACC-257 melanoma was > 100 µM throughout. Besides, the TGI in the test on NCI-H522 lung, with OVCAR-3 ovarian and in the test on LOX IMVI melanoma was > 100 µM in each case.

(Values after PubChem BioAssay (NCI).)
